Data published in patent US5710174A, “Factor XIIIA inhibitor” (Zymo Genetics, Inc., priority 1995, dated 1998).

Legend:
clot formation = conditions: background; cited from earlier work
papain = biological target: T1, papain (Carica papaya, UniProt P00784); assay: Papain inhibition assay; format: biochemical
T1 construct: purchased Boehringer Mannheim
T1 sequence (P00784 134-345): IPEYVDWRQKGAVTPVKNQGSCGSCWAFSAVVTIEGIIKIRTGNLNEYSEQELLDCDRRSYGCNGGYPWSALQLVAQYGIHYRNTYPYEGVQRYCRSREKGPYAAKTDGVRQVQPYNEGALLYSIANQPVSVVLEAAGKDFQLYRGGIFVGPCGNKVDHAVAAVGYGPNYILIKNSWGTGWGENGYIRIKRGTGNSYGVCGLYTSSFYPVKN
Protocol: For the papain inhibition assay, a buffer containing 0.1M NaPO4 and 2.5 mM EDTA at about pH 7.0 was used. An Azocoll™ solution was prepared by adding 5 mg Azocoll™ (Calbiochem; an insoluble, powdered cowhide to which a bright red dye is attached (azo-dye-bound collagen)) to the buffer while stirring. The Azocoll was prewarmed to about 37° C. 10 μl of 0.1M L-cysteine, 10 μl of 50 μg/ml papain (Boehringer Mannheim), 0.5 ml of Azocoll solution, and 50 μl of one of a series of concentrations of ZG-1400a, iodoacetamide, iodoacetic acid, cerulenin, or 50 μl of the DMSO or ethanol negative controls were added to duplicate 13×75 mm glass tubes. The ZG-1400a, iodoacetamide, and iodoacetic acid were individually prepared in 10% DMSO and tested using half-log dilutions, starting at a final assay concentration of 100 μM and diluting to 10 nM. Cerulenin was prepared in 10% ethanol and tested using half-log dilutions, starting at a final assay concentration of 100 μM and diluting to 10 nM. A negative (no inhibition) control for ZG-1400a, iodoacetamide and iodoacetic acid was 50 μl of 10% DMSO to give a final assay concentration of 1% DMSO in each control tube. A negative control for cerulenin was 50 μl of 10% ethanol to give a final assay concentration of 1% ethanol in each control tube. The test and control tubes then were incubated for 30 min at 37° C. in an agitated water bath.
After incubation, all of the tubes were centrifuged at 2000 RPM for 5 min. The supernatant was removed and its absorbance was read at 520 nm on a Beckman DU640 spectrophotometer to determine the amount of papain inhibition.

[1] = biological target: T2, tissue transglutaminase (tTG) (Cavia cutleri, UniProt P08587); assay: tTG screening assay; format: biochemical
T2 construct: purchased Sigma
T2 sequence (P08587 1-690): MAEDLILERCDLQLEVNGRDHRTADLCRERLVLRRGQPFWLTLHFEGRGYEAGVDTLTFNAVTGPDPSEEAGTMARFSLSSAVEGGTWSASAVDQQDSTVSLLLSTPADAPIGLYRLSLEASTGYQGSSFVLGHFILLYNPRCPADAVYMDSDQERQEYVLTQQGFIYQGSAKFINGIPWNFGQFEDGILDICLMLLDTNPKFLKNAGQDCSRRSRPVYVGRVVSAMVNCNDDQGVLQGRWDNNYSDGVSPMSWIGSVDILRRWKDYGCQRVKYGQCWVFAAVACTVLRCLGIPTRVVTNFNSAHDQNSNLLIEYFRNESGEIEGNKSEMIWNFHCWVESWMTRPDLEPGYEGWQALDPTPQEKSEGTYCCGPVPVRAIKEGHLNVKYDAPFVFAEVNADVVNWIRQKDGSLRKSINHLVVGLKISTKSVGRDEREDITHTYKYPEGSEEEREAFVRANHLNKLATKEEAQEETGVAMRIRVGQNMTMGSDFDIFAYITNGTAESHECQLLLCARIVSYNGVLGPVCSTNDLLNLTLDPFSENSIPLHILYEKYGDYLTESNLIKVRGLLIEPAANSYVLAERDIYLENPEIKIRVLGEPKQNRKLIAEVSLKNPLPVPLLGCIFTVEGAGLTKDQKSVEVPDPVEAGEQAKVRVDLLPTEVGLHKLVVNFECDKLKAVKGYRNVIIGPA
Text: Because FXIII is a member of the tissue transglutaminase (tTG) family, all potential FXIIIa inhibitors identified in the primary FXIIIa screening assay were further screened for tTG (non-FXIII-specific) inhibitory activity. The tTG screening assay was identical to the primary FXIIIa screening assay, except that tTG (Sigma) was used instead of FXIIIa and no thrombin or PPACK was used.
The determination of IC50 values was done the same as in the primary FXIIIa screening assay, except that purified compounds were used at varying concentrations (instead of crude culture extracts). The IC50 values allow one to make comparisons of one compound to another.

FXIIIa = biological target: T3, FXIIIa (Homo sapiens, UniProt P00488); assay: Primary FXIIIa screening assay (cross-linking of biotinylated fibrinogen and immobilized fibronectin); format: biochemical
T3 sequence (P00488 39-732 limits assumed): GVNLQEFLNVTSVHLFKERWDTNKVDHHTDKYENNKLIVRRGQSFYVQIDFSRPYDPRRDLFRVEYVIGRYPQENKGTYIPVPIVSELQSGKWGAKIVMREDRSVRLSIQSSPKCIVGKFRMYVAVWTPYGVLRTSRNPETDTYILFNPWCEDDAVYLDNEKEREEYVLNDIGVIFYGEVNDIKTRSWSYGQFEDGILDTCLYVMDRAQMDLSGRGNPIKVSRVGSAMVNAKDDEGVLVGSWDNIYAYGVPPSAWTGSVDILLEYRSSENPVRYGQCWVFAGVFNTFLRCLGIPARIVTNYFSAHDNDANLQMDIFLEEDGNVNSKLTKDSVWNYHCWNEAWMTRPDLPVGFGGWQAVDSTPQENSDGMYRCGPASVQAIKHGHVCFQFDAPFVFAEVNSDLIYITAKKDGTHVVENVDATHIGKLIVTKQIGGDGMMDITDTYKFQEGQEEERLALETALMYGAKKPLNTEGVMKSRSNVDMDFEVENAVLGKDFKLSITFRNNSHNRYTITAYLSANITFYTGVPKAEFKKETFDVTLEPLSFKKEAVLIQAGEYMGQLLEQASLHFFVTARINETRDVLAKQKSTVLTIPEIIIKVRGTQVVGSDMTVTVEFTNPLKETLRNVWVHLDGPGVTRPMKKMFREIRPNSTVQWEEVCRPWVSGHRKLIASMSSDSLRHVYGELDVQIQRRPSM
Protocol: The primary FXIIIa screening assay used a 96-well high throughput assay format. This assay assesses test sample inhibition of FXIIIa catalyzed cross-linking of biotinylated fibrinogen and immobilized fibronectin.
Test samples (possibly containing FXIIIa inhibitors) were added to 96-well plates coated with fibronectin, followed by the addition of FXIIIa, as described in the primary FXIIIa screening assay, below. Biotinylated fibrinogen was added to the wells, and streptavidin-alkaline phosphatase was used to detect biotinylated fibrinogen that had been cross-linked to fibronectin.
Purified fibronectin was diluted to 1 μg/ml in 0.1M Na2 CO3, pH 9.7, and added to control and test assay wells of 96-well plates at 100 μl/well. All wells were incubated overnight at 4° C.
After incubation, the plate wells were washed twice with 200 μl/well of wash buffer per wash to remove all fibronectin not bound to the wells. The wash buffer contained 0.135M NaCl, 2.7 mM KCl, 25 mM Tris at about pH 7.4, and 0.1% Tween 20® (Sigma Chemical Co., St. Louis, Mo.; polyoxyethylenesorbitan monolaurate). The plate wells were then blocked with 200 μl/well blocking buffer and incubated for 1-2 h at 37° C. The blocking buffer contained 0.135M NaCl, 2.7 mM KCl, 25 mM Tris at about pH 7.4, 0.1% Tween 20®, and 0.5% BSA (bovine serum albumin, Sigma fraction V; Sigma). After incubation, the plates wells were again washed with 200 μl/well of wash buffer to remove excess blocking buffer.
Briefly, fibrinogen was dialyzed against 0.1M NaHCO3, pH 8.5 (coupling buffer) at a concentration of 1 mg/ml. BNHS was dissolved in dimethylformamide at a concentration of 1.7 mg/ml, and added to fibrinogen in coupling buffer at a ratio of 30 μl BNHS to 1 ml fibrinogen. The mixture was incubated with rocking for 4 h at room temperature, dialyzed against PBS, and stored in aliquots at -80° C.
Biotinylated fibrinogen (40 μl of 20 μg/ml solution) was added to each plate well. Except in control wells (which received 10 μl of 10% DMSO alone), 10 μl of each of the 11,198 crude extracts in 10% DMSO were added to duplicate wells after the addition of biotinylated fibrinogen, resulting in a 1% final assay concentration of DMSO.
FXIIIa (recombinant human FXIIIa2 (ZymoGenetics), as described in European Patent No. 0 268 772, granted Apr. 26, 1995, and incorporated herein by reference) was diluted to 100 μg/ml in a solution of 50 mM Tris, 5 mM CaCl2 at pH 7.4 containing 1 unit/ml thrombin (bovine; Enzyme Research Labs) and incubated for 20 min at 37° C. FXIIIa then was diluted to 1 μg/ml in a cross-linking buffer consisting of the blocking buffer described above plus 20 mM CaCl2 and 75 ng/ml D-phenylalanyl-L-prolyl-L-arginine chloromethyl ketone (PPACK; Calbiochem, La Jolla, Calif.). Fifty microliters of FXIIIa in cross-linking buffer was added to each test and control well. All wells then were incubated for about 10 min at 37° C.
After incubation, the wells were washed twice with 200 μl/well of wash buffer to remove all biotinylated fibrinogen that was not cross-linked to fibronectin.

plasma clots = assay: Plasma clot lysis assay; set-up: species or system human; conditions: 100 μM
Protocol: For this assay, 50 μl of one of a series of concentrations of iodoacetic acid, cerulenin, or ZG-1400a was added to 0.5 ml human citrated plasma (prepared from one blood donor) in 5 ml polypropylene tubes. The ZG-1400a and iodoacetic acid were individually prepared in 10% DMSO and tested using half-log dilutions, starting at a final assay concentration of 100 μM and diluting to 10 μM. Cerulenin was prepared in 10% ethanol and tested using half-log dilutions, starting at a final assay concentration of 100 μM and diluting to 10 μM.
Approximately 10^6 cpm ^125 I-fibrinogen (Amersham), 50 mM CaCl2 (20 mM above citrate concentration) and 5 units thrombin (bovine, Enzyme Research Labs) were added to each test and control tube. The tubes were incubated while rocking for 20 h at 37° C. Plasma clots formed in the tubes were washed three times with about 1 ml phosphate buffered saline (PBS). The plasma clots in each tube were counted after the PBS washes.
Approximately 2 ml of 50 mM Tris, pH 7.4, containing 50 mM NaCl, 28 μg plasminogen (human, Calbiochem), and 280 ng urokinase (human, Calbiochem) were added to the clots in test and control tubes. At 1, 2, and 4 h intervals, 25 μl aliquots of the samples were removed from each tube and counted.
The values shown in Table 3 represent the amount of lysis after plasma clots were formed for about 20 h and exposed to plasminogen and urokinase for about 4 h.

| SMILES | internal bleeding (clot formation) | toxicity (clot formation) | IC50 (papain) | Papain inhibition (result in words, IC50 table) (papain; 100 μM to 10 nM, 30 min at 37° C.) | IC50 [1] | IC50 (FXIIIa) | susceptibility of plasma clots to lysis by plasminogen and urokinase (plasma clots) | % Plasma Clot lysis (plasma clots; clots formed about 20 h, plasminogen and urokinase about 4 h) |
| --- | --- | --- | --- | --- | --- | --- | --- | --- |
| O=c1oc2ccccc2c(O)c1Cc1c(O)c2ccccc2oc1=O [dicoumarin] | more prone to internal bleeding | associated with toxicity |  |  |  |  |  |  |
| O=C(O)CI [Iodoacetic Acid, iodoacetic acid] |  |  | 0.7 µM | did cause inhibition | 32 µM | 350 µM | significantly more susceptible to lysis | 23% |
